Test results as given in PubChem BioAssay (NCI).
Values joined by “and” are separate entries in the source; they are usually repeats but may differ in a detail not shown here. Equal values may be shown once.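 Exposure lasted 48 hours, with cells grown in 96-well plates and compounds tested at five concentrations. GI50: concentration for 50% inhibition of growth. TGI marks complete inhibition of growth.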

system: MDA-MB-468 breast; assay: NCI anticancer screen, dose series, 48 h

Compared with `Cc1ccc(C)c2c1C(O)(C#Cc1ccccc1)c1ccccc1C2(O)C#Cc1ccccc1` (stereo unspecified), `Nc1ccc(C2=NN(c3ccccc3)C(c3ccc(Cl)cc3)C2)cc1` (stereo unspecified) is 2.2-fold lower in GI50: 3570 nM for the first, 1660 nM for the second.

Going from `COc1cc(NC(N)=NCCC(C)(C)Oc2ccc(C(F)(F)F)cc2)ncc1C#N` to `COc1ccc(C(=O)/C=C/c2ccc(C)cc2)cc1OC`, the GI50 rises from 1070 nM to 11400 nM (11-fold).

Compared with `O=c1c(Oc2ccc(F)cc2F)cc2cnc(NC3CCOCC3)nc2n1CCCO`, `CN(C)CCCOc1ccc(-c2ccc3ncc4c(c3c2)n(C2CCOCC2)c(=O)n4C)cn1` is lower in GI50: over 25000 nM for the first, 2080 nM for the second.

`CCc1cccc(C)c1NC(=O)c1sc2nc3c(cc2c1N)CCCCC3` and `CCOC(=O)c1sc(-c2ccc(OS(=O)(=O)c3ccc(Br)s3)c(C=O)c2)nc1C` are within 1.5-fold of each other in GI50: 4180 nM for the first, 2960 nM for the second.

`Fc1ccc2[nH]cc(-c3nonc3-c3c[nH]c4ccc(Br)cc34)c2c1` and `CN(C)S(=O)(=O)c1ccc(-c2nc(C(Cl)Cl)nc3cc(-c4ccc(F)cc4)nn23)cc1` are within 1.5-fold of each other in GI50: 1940 nM for the first, 1630 nM for the second.

First: CCCNNC(=O)/C=C/c1ccc(CNCCc2c(C)[nH]c3ccccc23)cc1
Second: O=C(CO[N+](=O)[O-])Nc1ccc(C(=O)/C=C/c2ccc(Cl)cc2)cc1
The GI50 of the first is 74-fold lower: 27.9 nM for the first, 2060 nM for the second.

Going from `Cn1cc(C2=C(c3cn(CCCCN)c4ccccc34)C(=O)NC2=O)c2ccccc21` to `COC(=O)CCC(=O)NC1=C(Nc2ccc(OC)cc2)C(=O)c2ccccc2C1=O`, the GI50 falls from over 25000 nM to 3090 nM.

First: C=C1C(=O)O[C@H]2[C@H]1CC/C(COC(=O)CSCCSCC(=O)OC/C1=C/CC[C@@]3(C)O[C@H]3[C@H]3OC(=O)C(=C)[C@@H]3CC1)=C\CC[C@@]1(C)O[C@@H]21
Second: COC(=O)[C@@H](C)C[C@H](Cc1ccccc1)NC(=O)c1csc(CC[C@H](C(C)C)N(C)C(=O)[C@@H](NC(=O)[C@H]2CCCCN2C)C(C)C)n1
The GI50 of the first is 16-fold higher: 1070 nM for the first, 68.9 nM for the second.

`O=C(Nc1cccc(-n2ccc3c(NC(=O)c4ccccc4)nccc32)c1)Nc1cc(C(F)(F)F)cc(C(F)(F)F)c1` and `Cc1nc(SCC(=O)Nc2nc(-c3ccc(Cl)cc3)cs2)n(Nc2ccccc2)c1C` are within 1.5-fold of each other in GI50: 1550 nM for the first, 1450 nM for the second.

Compared with `O=S(=O)(Nc1ccccc1Cl)c1ccc(-c2cnc(C3CC3)o2)cc1`, `Cc1nn(-c2nc3ccccc3[nH]2)c(N)c1-c1ccc(Cl)cc1` is 11-fold higher in GI50: 236 nM for the first, 2690 nM for the second.

First: COc1cc(OC)cc(N(CCNC(C)C)c2ccc3ncc(-c4cnn(C)c4)nc3c2)c1
Second: COc1cccc(-c2cc(=O)c3cc(OC)ccc3[nH]2)c1
The GI50 of the first is 3.1-fold higher: 3070 nM for the first, 982 nM for the second.

First: CNC(=O)c1ccc(N2CCN(Cc3ccc4nc(C)c(=O)[nH]c4c3F)CC2)c(F)n1
Second: CCOC(=O)N1CCN(c2nc(Nc3cc(C)[nH]n3)c3ccccc3n2)CC1
The GI50 of the first is 15-fold higher: 27800 nM for the first, 1800 nM for the second.

First: CC[N+](CC)=c1sc2c(s1)C(c1ccc(Cl)cc1)Oc1ccc(Cl)cc1-2 (stereo unspecified)
Second: CCN(Cc1cccc(F)c1)c1ccc(CO)c(Cl)c1
The GI50 of the first is 89-fold higher: 1400 nM for the first, 15.7 nM for the second.

`CO[C@H]1/C=C/O[C@@]2(C)Oc3c(C)c(O)c4c(c3C2=O)C(=O)C(/C=N/N(c2ccccc2)c2ccccc2)=C(NC(=O)/C(C)=C\C=C\[C@H](C)[C@H](O)[C@@H](C)[C@@H](O)[C@@H](C)[C@H](OC(C)=O)[C@@H]1C)C4=O` and `Cc1ccc(-c2csc(/N=C3\C(=O)Nc4ccccc43)n2)cc1` are within 1.5-fold of each other in GI50: 2090 nM for the first, 1460 nM for the second.

Compared with `CCC[CH2][Sn]([CH2]CCC)([CH2]CCC)[O]c1ccc(Cl)cc1Cl`, `COC(=O)CCc1c[nH]c2ccc(N(CCCl)CCCl)cc12` is 3-fold higher in GI50: 105 nM for the first, 311 nM for the second.

First: COc1cc(/C=C2\C(=O)Nc3cc(C)c(O)cc32)cc(OC)c1OC
Second: COc1cc(-c2cc3ncccc3c3nc(N)c4cccnc4c23)cc(OC)c1OC
The GI50 of the first is 2.7-fold higher: 1500 nM for the first, 555 nM for the second.

First: C#CCOc1cccc(-c2ncnc3cc(NC(=O)CCl)ccc23)c1
Second: Cc1ccc2c(n1)C(=O)C(Cl)=C(Nc1ccc(C)c(C)c1)C2=O
The GI50 of the first is 4.6-fold higher: 1450 nM for the first, 317 nM for the second.

First: OCc1ccc(-c2ccc(-c3ccc(CO)o3)[se]2)o1
Second: S=C(Nc1ccc(Br)cc1)Nc1ccc(Br)cc1
The GI50 of the first is 10-fold lower: 219 nM for the first, 2260 nM for the second.

First: COC(=O)c1c2c(c[n+]([O-])c1C)C(=O)C=CC2=O
Second: COc1ccc(-c2cn[nH]c2-c2cc(OC)c3c(c2)OCO3)cc1
The GI50 of the first is 6-fold higher: 914 nM for the first, 152 nM for the second.

Going from `Cc1ccc(C)c2c1C(O)(C#Cc1ccccc1)c1ccccc1C2(O)C#Cc1ccccc1` (stereo unspecified) to `Nc1ccc(C2=NN(c3ccccc3)C(c3ccc(Cl)cc3)C2)cc1` (stereo unspecified), the TGI falls from over 100000 nM to 4090 nM.

Compared with `COc1cc(NC(N)=NCCC(C)(C)Oc2ccc(C(F)(F)F)cc2)ncc1C#N`, `COc1ccc(C(=O)/C=C/c2ccc(C)cc2)cc1OC` is 10-fold higher in TGI: 2440 nM for the first, 24600 nM for the second.

Compared with `O=c1c(Oc2ccc(F)cc2F)cc2cnc(NC3CCOCC3)nc2n1CCCO`, `CN(C)CCCOc1ccc(-c2ccc3ncc4c(c3c2)n(C2CCOCC2)c(=O)n4C)cn1` is lower in TGI: over 25000 nM for the first, 15700 nM for the second.

Compared with `CCc1cccc(C)c1NC(=O)c1sc2nc3c(cc2c1N)CCCCC3`, `CCOC(=O)c1sc(-c2ccc(OS(=O)(=O)c3ccc(Br)s3)c(C=O)c2)nc1C` is lower in TGI: over 100000 nM for the first, 9200 nM for the second.

`Fc1ccc2[nH]cc(-c3nonc3-c3c[nH]c4ccc(Br)cc34)c2c1` and `CN(C)S(=O)(=O)c1ccc(-c2nc(C(Cl)Cl)nc3cc(-c4ccc(F)cc4)nn23)cc1` are within 1.5-fold of each other in TGI: 4720 nM for the first, 4640 nM for the second.

Compared with `CCCNNC(=O)/C=C/c1ccc(CNCCc2c(C)[nH]c3ccccc23)cc1`, `O=C(CO[N+](=O)[O-])Nc1ccc(C(=O)/C=C/c2ccc(Cl)cc2)cc1` is 9.6-fold higher in TGI: 529 nM for the first, 5070 nM for the second.

Going from `Cn1cc(C2=C(c3cn(CCCCN)c4ccccc34)C(=O)NC2=O)c2ccccc21` to `COC(=O)CCC(=O)NC1=C(Nc2ccc(OC)cc2)C(=O)c2ccccc2C1=O`, the TGI falls from over 25000 nM to 12200 nM.

First: C=C1C(=O)O[C@H]2[C@H]1CC/C(COC(=O)CSCCSCC(=O)OC/C1=C/CC[C@@]3(C)O[C@H]3[C@H]3OC(=O)C(=C)[C@@H]3CC1)=C\CC[C@@]1(C)O[C@@H]21
Second: COC(=O)[C@@H](C)C[C@H](Cc1ccccc1)NC(=O)c1csc(CC[C@H](C(C)C)N(C)C(=O)[C@@H](NC(=O)[C@H]2CCCCN2C)C(C)C)n1
The TGI of the first is 10-fold higher: 2850 nM for the first, 275 nM for the second.

First: O=C(Nc1cccc(-n2ccc3c(NC(=O)c4ccccc4)nccc32)c1)Nc1cc(C(F)(F)F)cc(C(F)(F)F)c1
Second: Cc1nc(SCC(=O)Nc2nc(-c3ccc(Cl)cc3)cs2)n(Nc2ccccc2)c1C
The TGI of the first is 2.2-fold higher: 13600 nM for the first, 6270 nM for the second.

Compared with `O=S(=O)(Nc1ccccc1Cl)c1ccc(-c2cnc(C3CC3)o2)cc1`, `Cc1nn(-c2nc3ccccc3[nH]2)c(N)c1-c1ccc(Cl)cc1` is higher in TGI: 6910 nM for the first, over 100000 nM for the second.

Compared with `COc1cc(OC)cc(N(CCNC(C)C)c2ccc3ncc(-c4cnn(C)c4)nc3c2)c1`, `COc1cccc(-c2cc(=O)c3cc(OC)ccc3[nH]2)c1` is higher in TGI: 13000 nM for the first, over 100000 nM for the second.

Going from `CNC(=O)c1ccc(N2CCN(Cc3ccc4nc(C)c(=O)[nH]c4c3F)CC2)c(F)n1` to `CCOC(=O)N1CCN(c2nc(Nc3cc(C)[nH]n3)c3ccccc3n2)CC1`, the TGI falls from over 100000 nM to 8420 nM.

First: CC[N+](CC)=c1sc2c(s1)C(c1ccc(Cl)cc1)Oc1ccc(Cl)cc1-2 (stereo unspecified)
Second: CCN(Cc1cccc(F)c1)c1ccc(CO)c(Cl)c1
The TGI of the first is 110-fold higher: 4120 nM for the first, 38.1 nM for the second.

`CO[C@H]1/C=C/O[C@@]2(C)Oc3c(C)c(O)c4c(c3C2=O)C(=O)C(/C=N/N(c2ccccc2)c2ccccc2)=C(NC(=O)/C(C)=C\C=C\[C@H](C)[C@H](O)[C@@H](C)[C@@H](O)[C@@H](C)[C@H](OC(C)=O)[C@@H]1C)C4=O` and `Cc1ccc(-c2csc(/N=C3\C(=O)Nc4ccccc43)n2)cc1` are within 1.5-fold of each other in TGI: 4690 nM for the first, 3510 nM for the second.

Going from `CCC[CH2][Sn]([CH2]CCC)([CH2]CCC)[O]c1ccc(Cl)cc1Cl` to `COC(=O)CCc1c[nH]c2ccc(N(CCCl)CCCl)cc12`, the TGI rises from 250 nM to 1810 nM (7.2-fold).

Compared with `COc1cc(/C=C2\C(=O)Nc3cc(C)c(O)cc32)cc(OC)c1OC`, `COc1cc(-c2cc3ncccc3c3nc(N)c4cccnc4c23)cc(OC)c1OC` is 11-fold higher in TGI: 5880 nM for the first, 66800 nM for the second.

First: C#CCOc1cccc(-c2ncnc3cc(NC(=O)CCl)ccc23)c1
Second: Cc1ccc2c(n1)C(=O)C(Cl)=C(Nc1ccc(C)c(C)c1)C2=O
The TGI of the first is 2.6-fold higher: 3540 nM for the first, 1340 nM for the second.

Compared with `OCc1ccc(-c2ccc(-c3ccc(CO)o3)[se]2)o1`, `S=C(Nc1ccc(Br)cc1)Nc1ccc(Br)cc1` is 20-fold higher in TGI: 704 nM for the first, 14000 nM for the second.

Going from `COC(=O)c1c2c(c[n+]([O-])c1C)C(=O)C=CC2=O` to `COc1ccc(-c2cn[nH]c2-c2cc(OC)c3c(c2)OCO3)cc1`, the TGI falls from 3010 nM to 733 nM (4.1-fold).

For `Cc1cnc(NC(=O)Nc2cc(Br)c(C)cc2OC[C@@H]2CNCCO2)cn1`, the GI50 was 3860 nM and 834 nM.
For `CN[C@H]1C=C[C@@H]2/C=C(C)/C=C/[C@@H](C)[C@H]([C@H](C)[C@H](O)[C@@H](C)NC(C)=O)OC(=O)/C=C/C=C(C)\C=C\[C@]2(C)C1`, the GI50 was < 1 nM and 4.9 nM.
`FC(F)c1nc2ccccc2n1-c1nc(N2CCOCC2)nc(N2CCOCC2)n1` was tested, and the GI50 was 135 nM and 124 nM.

For `Cc1cnc(NC(=O)Nc2cc(Br)c(C)cc2OC[C@@H]2CNCCO2)cn1`, the TGI was > 10000 nM and 5490 nM.
For `FC(F)c1nc2ccccc2n1-c1nc(N2CCOCC2)nc(N2CCOCC2)n1`, the TGI was 971 nM and 607 nM.
